Converted amounts (≈) assume the structure as drawn.
Tests used:
[1] = molecular target: T1, E. coli K12 PBP3 (Escherichia coli, UniProt P0AD68); assay: biochemical; type: binding
T1 construct: made in house
Method in brief: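 Fluorescence polarization (ex 490/em 520 nm) competition of inhibitors against Bocillin-FL at 0.1 μM, read up to 60 min. Final PBP levels: E. coli PBP3 1.5 μM; A. baumannii PBP2 2.5 μM, PBP3 0.2 μM in Tris pH 8.0/NaCl/glycerol/Tween 20; N. gonorrhoeae PBP2 […] in Hepes pH 8.0/NaCl/glycerol. EC50 = concentration halving PBP-bound Bocillin-FL.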

[2] = molecular target: T2, P. aeruginosa PBP3 (Pseudomonas aeruginosa, UniProt G3XD46); assay: Bocillin-FL fluorescence polarization competition binding assay, P. aeruginosa PBP3; settings: fluorescence polarization competition binding assay using Bocillin-FL
T2 construct: made in house
T2 sequence (G3XD46 whole entry): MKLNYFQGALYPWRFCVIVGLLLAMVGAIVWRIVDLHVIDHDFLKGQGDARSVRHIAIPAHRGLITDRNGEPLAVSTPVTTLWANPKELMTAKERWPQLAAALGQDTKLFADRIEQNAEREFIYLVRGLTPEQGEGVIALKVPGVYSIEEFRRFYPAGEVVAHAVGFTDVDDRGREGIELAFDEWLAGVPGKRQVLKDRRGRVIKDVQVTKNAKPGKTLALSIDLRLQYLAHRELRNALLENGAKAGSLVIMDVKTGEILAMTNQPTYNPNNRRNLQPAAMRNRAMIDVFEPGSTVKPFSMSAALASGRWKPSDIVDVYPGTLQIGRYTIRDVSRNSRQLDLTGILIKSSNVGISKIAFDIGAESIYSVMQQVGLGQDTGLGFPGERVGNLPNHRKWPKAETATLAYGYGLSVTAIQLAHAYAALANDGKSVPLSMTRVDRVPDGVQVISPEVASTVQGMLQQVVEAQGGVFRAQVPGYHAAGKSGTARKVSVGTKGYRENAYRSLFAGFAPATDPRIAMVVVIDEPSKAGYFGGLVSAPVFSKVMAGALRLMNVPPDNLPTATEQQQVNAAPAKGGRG
Method in brief: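 Binding of boronic acid inhibitors to purified Pseudomonas aeruginosa (PA01) PBP3 was measured by fluorescence polarization competition with Bocillin-FL, a fluorescent penicillin V. Reactions of 80 μl contained 0.75 μM PBP3 and 0.1 μM Bocillin-FL in 50 mM Hepes (pH 8.0), 300 mM NaCl and 5% (v/v) glycerol, in black 384-well plates. FP (Excitation 490 nm, Emission 520 nm) was read for up to 60 minutes. EC50 is the concentration that halves PBP-bound Bocillin-FL.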

[3] = system: N. gonorrhoeae WHO Z; assay: Liquid broth MIC in Fastidious broth; type: cell-based; settings: Neisseria gonorrhoeae, read-out: Minimum Inhibitory Concentration, N. gonorrhoeae WHO Z
Method in brief: (§1)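 Mosaic-PBP2 strains grown 24 h on chocolate agar (36 °C, 5% CO2), then direct-suspended in saline and OD600-adjusted. Twofold compound dilutions in Fastidious broth inoculated at 5×10^5 CFU/mL and incubated ~24 h at 36 °C, 5% CO2. MIC read visually as lowest concentration with <10% growth versus full-growth wells.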

[4] = system: N. gonorrhoeae WHO Q; assay: Liquid broth MIC in Fastidious broth; type: cell-based; settings: Neisseria gonorrhoeae, read-out: Minimum Inhibitory Concentration, N. gonorrhoeae WHO Q
Method in brief: as §1

[5] = system: N. gonorrhoeae WHO L; assay: Liquid broth MIC in Fastidious broth; type: cell-based; settings: Neisseria gonorrhoeae; N. gonorrhoeae strain WHO L; Fastidious broth; read-out: Minimum Inhibitory Concentration, N. gonorrhoeae WHO L
Method in brief: (§2)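 Colonies were swabbed from chocolate agar after 24 h growth and standardised by optical density at 600 nm. Compounds were serially diluted twofold in Fastidious broth, and bacteria added to give 5×10^5 CFU/mL. After about 24 h at 36 °C in 5% CO2, the lowest concentration allowing under 10% growth was taken as MIC.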

[6] = system: N. gonorrhoeae FA1090; assay: Liquid broth MIC in Fastidious broth; type: cell-based; settings: Neisseria gonorrhoeae; N. gonorrhoeae strain FA1090; Fastidious broth; read-out: Minimum Inhibitory Concentration, N. gonorrhoeae FA1090
Method in brief: as §2

[7] = system: N. gonorrhoeae WHO K; assay: Liquid broth MIC in Fastidious broth; type: cell-based; settings: Neisseria gonorrhoeae, read-out: Minimum Inhibitory Concentration, N. gonorrhoeae WHO K
Method in brief: as §1

[8] = system: N. gonorrhoeae WHO G; assay: Liquid broth MIC in Fastidious broth; type: cell-based; settings: Neisseria gonorrhoeae; N. gonorrhoeae strain WHO G; Fastidious broth; read-out: Minimum Inhibitory Concentration, N. gonorrhoeae WHO G
Method in brief: as §2

[9] = system: N. gonorrhoeae ATCC 49226; assay: Liquid broth MIC in Fastidious broth; type: cell-based; settings: Neisseria gonorrhoeae, ATCC49226; N. gonorrhoeae strain ATCC 49226; Fastidious broth; read-out: Minimum Inhibitory Concentration, N. gonorrhoeae ATCC 49226
Method in brief: as §2

T1 sequence (P0AD68 1-577): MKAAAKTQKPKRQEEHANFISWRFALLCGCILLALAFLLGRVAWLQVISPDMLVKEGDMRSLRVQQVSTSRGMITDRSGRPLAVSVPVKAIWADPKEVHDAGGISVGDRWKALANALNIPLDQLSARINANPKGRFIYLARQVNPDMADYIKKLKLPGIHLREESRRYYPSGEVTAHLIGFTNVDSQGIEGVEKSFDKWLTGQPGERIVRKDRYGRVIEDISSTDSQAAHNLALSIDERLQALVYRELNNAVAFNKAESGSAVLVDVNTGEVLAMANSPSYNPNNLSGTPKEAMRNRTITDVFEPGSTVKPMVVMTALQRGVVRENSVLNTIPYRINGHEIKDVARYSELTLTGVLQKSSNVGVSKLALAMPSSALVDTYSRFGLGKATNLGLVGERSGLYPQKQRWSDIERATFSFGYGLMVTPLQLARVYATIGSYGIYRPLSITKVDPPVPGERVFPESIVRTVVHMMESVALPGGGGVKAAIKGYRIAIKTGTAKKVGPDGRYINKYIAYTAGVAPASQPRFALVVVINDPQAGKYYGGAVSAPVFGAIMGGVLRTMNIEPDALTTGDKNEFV

Row | Structure (SMILES) | EC50 [1] [µM] | P. aeruginosa PBP3 Potency [2] | MIC [3] [µg/mL] | MIC [4] [µg/mL] | MIC [5] [µg/mL] | MIC [6] [µg/mL] | MIC [7] [µg/mL] | MIC [8] [µg/mL] | MIC [9] [µg/mL]
1 | NS(=O)(=O)Nc1cccc(C(NC(=O)N2CCN(CCF)C(=O)C2=O)C(=O)N[C@H]2Cc3cccc(C(=O)O)c3OB2O)c1 (stereo partly drawn) [Example 116, (3R)-3-(2-(4-(2-fluoroethyl)-2,3-dioxopiperazine-1-carboxamido)-2-(3-(sulfamoylamino)phenyl)acetamido)-2-hydroxy-3,4-dihydro-2H-benzo[e][1,2]oxaborinine-8-carboxylic acid] | < 30 | D (D represents a potency <10 μM) | 16 to 32 (≈ 25.8 to 51.6 µM) | 16 to 32 (≈ 25.8 to 51.6 µM) | > 64 | 0.25 to 0.5 (≈ 0.403 to 0.806 µM) | 16 to 32 (≈ 25.8 to 51.6 µM) | 4 to 8 (≈ 6.45 to 12.9 µM) | 16 to 32 (≈ 25.8 to 51.6 µM)
2 | O=C(O)c1cccc2c1OB(O)[C@@H](NC(=O)C(NC(=O)N1CCNC1=O)c1c(F)cc(O)cc1F)C2 (stereo partly drawn) [Example 156, (3R)-3-(2-(2,6-difluoro-4-hydroxyphenyl)-2-(2-oxoimidazolidine-1-carboxamido)acetamido)-2-hydroxy-3,4-dihydro-2H-benzo[e][1,2]oxaborinine-8-carboxylic acid] | < 30 | D (D represents a potency <10 μM) | > 64 | > 64 | > 64 | 1 to 2 (≈ 1.98 to 3.97 µM) | > 64 | 4 to 8 (≈ 7.93 to 15.9 µM) | 16 to 32 (≈ 31.7 to 63.5 µM)
3 | CS(=O)(=O)N1CCN(C(=O)N[C@H](C(=O)N[C@H]2Cc3cccc(C(=O)O)c3OB2O)c2c(F)cc(O)cc2F)C1=O (single isomer, unassigned) [Example 136] | 30 to 500 | B (B represents a potency between 30 μM and 500 μM inclusive) | > 64 | > 64 | > 64 | 1 to 2 (≈ 1.72 to 3.43 µM) | > 64 | 16 to 32 (≈ 27.5 to 55 µM) | > 64
4 | CCN1CCN(C(=O)NC(C(=O)N[C@H]2Cc3cccc(C(=O)O)c3OB2O)c2cc(F)c(C(=O)O)cc2F)C(=O)C1=O (stereo partly drawn) [Example 137, (3R)-3-(2-(4-carboxy-2,5-difluorophenyl)-2-(4-ethyl-2,3-dioxopiperazine-1-carboxamido)acetamido)-2-hydroxy-3,4-dihydro-2H-benzo[e][1,2]oxaborinine-8-carboxylic acid] | < 30 | D (D represents a potency <10 μM) | 4 to 8 (≈ 6.8 to 13.6 µM) | 4 to 8 (≈ 6.8 to 13.6 µM) | 16 to 32 (≈ 27.2 to 54.4 µM) | 0.25 to 0.5 (≈ 0.425 to 0.85 µM) | 4 to 8 (≈ 6.8 to 13.6 µM) | 1 to 2 (≈ 1.7 to 3.4 µM) | 1 to 2 (≈ 1.7 to 3.4 µM)
5 | CCN1CCN(C(=O)NC(C(=O)N[C@H]2Cc3cccc(C(=O)O)c3OB2O)c2cncc(O)c2)C(=O)C1=O (stereo partly drawn) [Example 112, (3R)-3-(2-(4-ethyl-2,3-dioxopiperazine-1-carboxamido)-2-(5-hydroxypyridin-3-yl)acetamido)-2-hydroxy-3,4-dihydro-2H-benzo[e][1,2]oxaborinine-8-carboxylic acid] | 30 to 500 | D (D represents a potency <10 μM) | 16 to 32 (≈ 30.5 to 60.9 µM) | 16 to 32 (≈ 30.5 to 60.9 µM) | > 64 | 1 to 2 (≈ 1.9 to 3.81 µM) | > 64 | 4 to 8 (≈ 7.61 to 15.2 µM) | 4 to 8 (≈ 7.61 to 15.2 µM)
6 | NCCN1CCN(C(=O)N[C@@H](C(=O)N[C@H]2Cc3cccc(C(=O)O)c3OB2O)c2ccc(O)c(F)c2F)C(=O)C1=O (single isomer, unassigned) [Example 170] | < 30 | D (D represents a potency <10 μM) | > 64 | > 64 | > 64 | 0.25 to 0.5 (≈ 0.435 to 0.869 µM) | > 64 | 4 to 8 (≈ 6.95 to 13.9 µM) | 4 to 8 (≈ 6.95 to 13.9 µM)
7 | NCCN1CCN(C(=O)N[C@H](C(=O)N[C@H]2Cc3cccc(C(=O)O)c3OB2O)c2cc(F)c(O)c(F)c2)C(=O)C1=O (single isomer, unassigned) [Example 158] | 30 to 500 | C (C represents a potency between 10 and 30 μM) | > 64 | > 64 | > 64 | 4 to 8 (≈ 6.95 to 13.9 µM) | > 64 | 16 to 32 (≈ 27.8 to 55.6 µM) | > 64
8 | CCN1CCN(C(=O)NC(C(=O)N[C@H]2Cc3cccc(C(=O)O)c3OB2O)c2cccc(CN)c2)C(=O)C1=O (stereo partly drawn) [Example 108, (3R)-3-(2-(3-(aminomethyl)phenyl)-2-(4-ethyl-2,3-dioxopiperazine-1-carboxamido)acetamido)-2-hydroxy-3,4-dihydro-2H-benzo[e][1,2]oxaborinine-8-carboxylic acid] | 30 to 500 | B (B represents a potency between 30 μM and 500 μM inclusive) | > 64 | > 64 | > 64 | 1 to 2 (≈ 1.86 to 3.72 µM) | > 64 | 4 to 8 (≈ 7.44 to 14.9 µM) | 16 to 32 (≈ 29.8 to 59.6 µM)
9 | CCN1CCN(C(=O)NC(C(=O)N[C@H]2Cc3cccc(C(=O)O)c3OB2O)c2cc(Cl)c(O)cc2F)C(=O)C1=O (stereo partly drawn) [Example 101, (3R)-3-(2-(5-chloro-2-fluoro-4-hydroxyphenyl)-2-(4-ethyl-2,3-dioxopiperazine-1-carboxamido)acetamido)-2-hydroxy-3,4-dihydro-2H-benzo[e][1,2]oxaborinine-8-carboxylic acid] | < 30 | D (D represents a potency <10 μM) | 16 to 32 (≈ 27.7 to 55.5 µM) | 16 to 32 (≈ 27.7 to 55.5 µM) | 16 to 32 (≈ 27.7 to 55.5 µM) | 0.25 to 0.5 (≈ 0.433 to 0.867 µM) | 16 to 32 (≈ 27.7 to 55.5 µM) | 1 to 2 (≈ 1.73 to 3.47 µM) | 4 to 8 (≈ 6.94 to 13.9 µM)
10 | CCN1CCN(C(=O)NC(C(=O)N[C@H]2Cc3cccc(C(=O)O)c3OB2O)c2c(Cl)cc(C(=O)O)cc2Cl)C(=O)C1=O (stereo partly drawn) [Example 150, (3R)-3-(2-(4-carboxy-2,6-dichlorophenyl)-2-(4-ethyl-2,3-dioxopiperazine-1-carboxamido)acetamido)-2-hydroxy-3,4-dihydro-2H-benzo[e][1,2]oxaborinine-8-carboxylic acid] | 30 to 500 | D (D represents a potency <10 μM) | > 64 | > 64 | > 64 | 4 to 8 (≈ 6.44 to 12.9 µM) | > 64 | 16 to 32 (≈ 25.8 to 51.5 µM) | > 64
11 | CCN1CCN(C(=O)NC(C(=O)N[C@H]2Cc3cccc(C(=O)O)c3OB2O)c2cc(F)c(C(=O)O)c(F)c2)C(=O)C1=O (stereo partly drawn) [Example 141, (3R)-3-(2-(4-carboxy-3,5-difluorophenyl)-2-(4-ethyl-2,3-dioxopiperazine-1-carboxamido)acetamido)-2-hydroxy-3,4-dihydro-2H-benzo[e][1,2]oxaborinine-8-carboxylic acid] | < 30 | D (D represents a potency <10 μM) | 1 to 2 (≈ 1.7 to 3.4 µM) | 1 to 2 (≈ 1.7 to 3.4 µM) | 4 to 8 (≈ 6.8 to 13.6 µM) | < 0.125 | 1 to 2 (≈ 1.7 to 3.4 µM) | 0.25 to 0.5 (≈ 0.425 to 0.85 µM) | 1 to 2 (≈ 1.7 to 3.4 µM)
12 | CS(=O)(=O)N1CCN(C(=O)N[C@@H](C(=O)N[C@H]2Cc3cccc(C(=O)O)c3OB2O)c2c(F)cc(O)cc2F)C1=O (single isomer, unassigned) [Example 135] | < 30 | D (D represents a potency <10 μM) | 16 to 32 (≈ 27.5 to 55 µM) | 16 to 32 (≈ 27.5 to 55 µM) | 16 to 32 (≈ 27.5 to 55 µM) | < 0.125 | > 64 | 1 to 2 (≈ 1.72 to 3.43 µM) | 4 to 8 (≈ 6.87 to 13.7 µM)
13 | NCCN1CCN(C(=O)N[C@H](C(=O)N[C@H]2Cc3cccc(C(=O)O)c3OB2O)c2c(F)cc(O)cc2F)C(=O)C1=O (single isomer, unassigned) [Example 110] | 30 to 500 | B (B represents a potency between 30 μM and 500 μM inclusive) | > 64 | > 64 | > 64 | 16 to 32 (≈ 27.8 to 55.6 µM) | > 64 | > 64 | > 64
14 | NCCN1CCN(C(=O)N[C@H](C(=O)N[C@H]2Cc3cccc(C(=O)O)c3OB2O)c2ccc(O)c(F)c2F)C(=O)C1=O (single isomer, unassigned) [Example 169] | 30 to 500 | C (C represents a potency between 10 and 30 μM) | > 64 | > 64 | > 64 | 4 to 8 (≈ 6.95 to 13.9 µM) | > 64 | > 64 | > 64

From patent publication US20230114728A1 (Venatorx Pharmaceuticals, Inc., priority 2019, published 2023)
